In general, pIC50 refers to −log10 of the IC50, conventionally taken in molar units. Low readings indicate a high IC50, high ones a low IC50.

One assay deals with RON (Homo sapiens, UniProt Q04912). The experiment in a line: Test B: HTRF RON test in 96-well format. It is filed as biochemical. As for the experimental part:
B) HTRF RON Test in 96-Well Format
The inhibitory potency (IC50) of molecules on the enzymatic activity of kinase phosphorylation RON is determined by the HTRF technique. The activity of the kinase is evaluated by measuring the phosphorylation of the substrate polyGAT by the enzyme, in the presence of ATP.
Final RON 5 nM is incubated in the presence of the molecule to be tested (for a final concentration range from 0.17 nM to 10 μM, final DMSO 3%) in buffer MOPS 10 mM pH 7, DTT 1 mM, Tween 20 0.01%. This pre-incubation is performed in 96 half-well black plates in a volume of 35 μl for 30 minutes at room temperature.
The reaction is initiated by adding 15 μl of a mixture of substrates constituted of biotinylated poly-(GAT) 1 μg/ml final and ATP 10 μM final in the presence of MgCl2 5 mM final for a final volume of 50 μl.
After incubation for 30 min at room temperature, the reaction is stopped with 30 μl of a mixture of Hepes 100 mM final pH 7, potassium fluoride 400 mM final, BSA 0.1% and EDTA 133 mM in the presence of 80 ng per well of antibodies Streptavidin ITS-XL665 Cis-Bio Int. and 18 ng per well of anti-phosphotyrosine PT66 labelled with europium cryptate.
After incubation for 2 hours at room temperature, reading is carried out at 2 wavelengths 620 nm and 665 nm in a Genios TECAN reader for the TRACE/HTRF technique and the percentage inhibition is calculated according to the 665/620 ratios.
(In general: Time-resolved FRET reads energy transfer from a long-lived donor to a nearby acceptor.)

The target of a further assay is T1, MET (Homo sapiens, UniProt P08581).
T1 construct: endogenous in cells; host or cells: MKN45 cells
T1 sequence (P08581 25-1390): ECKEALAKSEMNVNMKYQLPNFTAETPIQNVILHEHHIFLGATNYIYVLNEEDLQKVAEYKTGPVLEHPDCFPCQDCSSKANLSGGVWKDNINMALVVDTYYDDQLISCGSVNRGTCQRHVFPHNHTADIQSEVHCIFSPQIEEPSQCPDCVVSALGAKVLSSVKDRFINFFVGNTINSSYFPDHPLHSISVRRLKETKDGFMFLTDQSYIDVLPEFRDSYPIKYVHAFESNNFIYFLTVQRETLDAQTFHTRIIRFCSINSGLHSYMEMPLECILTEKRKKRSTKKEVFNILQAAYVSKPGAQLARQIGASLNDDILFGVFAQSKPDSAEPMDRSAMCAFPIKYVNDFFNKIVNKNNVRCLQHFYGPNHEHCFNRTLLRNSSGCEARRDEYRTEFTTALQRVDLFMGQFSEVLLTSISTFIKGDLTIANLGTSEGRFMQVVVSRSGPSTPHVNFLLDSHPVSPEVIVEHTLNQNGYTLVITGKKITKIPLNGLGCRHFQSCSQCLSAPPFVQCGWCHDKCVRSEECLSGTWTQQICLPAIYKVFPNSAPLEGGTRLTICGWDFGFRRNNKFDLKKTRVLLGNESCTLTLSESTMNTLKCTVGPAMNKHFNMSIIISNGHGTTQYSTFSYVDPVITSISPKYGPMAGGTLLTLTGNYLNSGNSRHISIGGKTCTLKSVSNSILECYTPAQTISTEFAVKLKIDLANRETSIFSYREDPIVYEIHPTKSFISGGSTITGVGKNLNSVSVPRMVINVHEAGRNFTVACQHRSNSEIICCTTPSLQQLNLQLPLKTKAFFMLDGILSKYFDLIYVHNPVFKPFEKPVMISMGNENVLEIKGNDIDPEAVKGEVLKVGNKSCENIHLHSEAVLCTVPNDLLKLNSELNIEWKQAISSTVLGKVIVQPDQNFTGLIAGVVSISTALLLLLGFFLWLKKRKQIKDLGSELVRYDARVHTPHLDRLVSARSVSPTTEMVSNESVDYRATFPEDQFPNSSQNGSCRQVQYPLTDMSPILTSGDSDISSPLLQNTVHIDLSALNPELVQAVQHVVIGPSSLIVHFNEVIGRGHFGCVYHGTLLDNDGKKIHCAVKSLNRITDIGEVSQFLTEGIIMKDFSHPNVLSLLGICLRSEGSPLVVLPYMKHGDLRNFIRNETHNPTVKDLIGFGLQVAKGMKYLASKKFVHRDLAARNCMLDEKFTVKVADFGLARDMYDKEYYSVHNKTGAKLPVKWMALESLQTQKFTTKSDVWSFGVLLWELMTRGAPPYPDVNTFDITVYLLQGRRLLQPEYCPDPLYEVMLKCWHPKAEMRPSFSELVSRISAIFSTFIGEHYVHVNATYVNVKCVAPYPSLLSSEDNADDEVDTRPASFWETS
The experiment in a line: Test C: inhibition of the autophosphorylation of MET, ELISA technique (pppY1230, 1234, 1235), MKN45 cells. The class given is cell-based. In short, it runs like this: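 MKN45 cells adhered 24 h, then treated 1 h with compound at 6 concentrations in duplicate, final range 10000 to 30 nM. Lysates assayed by phospho-MET (pY1230/1234/1235) sandwich ELISA with HRP chromogen read at 450 nm.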

A further assay concerns MKN45 cells. The experiment in a line: Test D: cellular proliferation by 14C-thymidine pulse, MKN45 cells. The class given is cell-based. Conditions: cell line not stated (HCT116 or MKN45). The essentials: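 MKN45 cells (7500/well, RPMI + 10% foetal calf serum) treated with 10 concentrations, 10000 to 0.3 nM in 3-fold steps, duplicate. 14C-thymidine (0.1 μCi/well) added at 72 h; incorporation counted after 24 h pulse, 96 h total treatment.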

[1] abbreviates: cellular proliferation by 14C-thymidine pulse.
Where [2] appears, read: Homo sapiens, MKN-45, cellular proliferation by 14C-thymidine pulse.

pIC50: −log10 of the molar value. Where a name gives a salt, the structure may show the parent alone.

RON, sequence (Q04912 25-1400): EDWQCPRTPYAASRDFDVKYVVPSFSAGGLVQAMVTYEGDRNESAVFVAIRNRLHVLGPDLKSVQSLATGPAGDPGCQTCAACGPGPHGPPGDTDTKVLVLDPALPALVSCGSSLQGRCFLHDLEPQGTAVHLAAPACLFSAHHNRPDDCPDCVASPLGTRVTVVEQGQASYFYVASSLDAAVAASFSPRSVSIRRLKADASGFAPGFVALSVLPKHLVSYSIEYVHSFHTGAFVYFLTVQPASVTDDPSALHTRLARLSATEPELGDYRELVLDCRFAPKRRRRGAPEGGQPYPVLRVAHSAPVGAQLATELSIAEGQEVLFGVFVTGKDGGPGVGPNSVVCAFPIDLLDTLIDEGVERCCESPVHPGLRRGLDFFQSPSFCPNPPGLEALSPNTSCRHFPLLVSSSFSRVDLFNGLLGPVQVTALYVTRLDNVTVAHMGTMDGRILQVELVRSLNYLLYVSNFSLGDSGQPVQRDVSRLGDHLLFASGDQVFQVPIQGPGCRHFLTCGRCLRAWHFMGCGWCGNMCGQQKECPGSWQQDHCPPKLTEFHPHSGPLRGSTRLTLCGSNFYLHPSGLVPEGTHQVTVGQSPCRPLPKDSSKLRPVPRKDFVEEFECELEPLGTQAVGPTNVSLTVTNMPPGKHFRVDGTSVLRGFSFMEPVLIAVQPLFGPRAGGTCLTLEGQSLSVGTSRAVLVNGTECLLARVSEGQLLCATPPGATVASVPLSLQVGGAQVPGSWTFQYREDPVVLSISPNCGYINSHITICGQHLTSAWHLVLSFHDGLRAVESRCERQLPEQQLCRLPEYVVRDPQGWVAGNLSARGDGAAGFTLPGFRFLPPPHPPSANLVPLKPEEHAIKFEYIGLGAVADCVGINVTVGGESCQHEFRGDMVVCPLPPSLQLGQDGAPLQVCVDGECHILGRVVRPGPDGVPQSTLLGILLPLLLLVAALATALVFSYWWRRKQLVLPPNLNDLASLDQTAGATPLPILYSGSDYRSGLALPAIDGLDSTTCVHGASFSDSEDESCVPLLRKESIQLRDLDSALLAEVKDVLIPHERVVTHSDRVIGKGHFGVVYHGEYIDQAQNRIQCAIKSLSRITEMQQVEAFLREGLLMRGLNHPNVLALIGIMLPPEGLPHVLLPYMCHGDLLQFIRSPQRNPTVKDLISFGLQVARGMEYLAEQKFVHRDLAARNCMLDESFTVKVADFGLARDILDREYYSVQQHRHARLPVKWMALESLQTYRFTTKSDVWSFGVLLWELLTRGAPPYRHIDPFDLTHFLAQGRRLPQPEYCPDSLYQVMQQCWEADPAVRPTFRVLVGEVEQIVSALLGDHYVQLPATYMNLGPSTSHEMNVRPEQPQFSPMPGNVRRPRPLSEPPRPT

Take `CC(Oc1ccc2nc(NC(=O)NCCN3CCOCC3)sc2c1)c1c(Cl)ccc(F)c1Cl` (single isomer, unassigned) [Example 25, 1-{6-[(1R*)-(2,6-dichloro-3-fluorophenyl)ethoxy]-1,3-benzothiazol-2-yl}-3-(2-morpholin-4-ylethyl)urea]: the pIC50 on RON, at MET and with MKN45 cells (setting [1]) was over 6.30 in each case.
Consider `C[C@@H](Oc1cc2sc(NC(=O)NCCN3CCOCC3)nc2cc1F)c1c(Cl)ccc(F)c1Cl` (single isomer, unassigned) [Example 32, 1-{6-[(1R)-(2,6-dichloro-3-fluorophenyl)ethoxy]-5-fluoro-1,3-benzothiazol-2-yl}-3-(2-morpholin-4-ylethyl)urea or 1-{6-[(1S)-(2,6-dichloro-3-fluorophenyl)ethoxy]-5-fluoro-1,3-benzothiazol-2-yl}-3-(2-morpholin-4-ylethyl)urea], for which the results for the pIC50 on RON, against MET and in the assay with MKN45 cells (setting [1]) were over 6.30, over 6.30 and 5.00 to 6.30, respectively.
As to `C[C@@H](Oc1cc2sc(NC(=O)NCCN3CCOCC3)nc2cc1F)c1c(Cl)ccc(F)c1Cl` (single isomer, unassigned) [Example 33, 1-{6-[(1R)-(2,6-dichloro-3-fluorophenyl)ethoxy]-5-fluoro-1,3-benzothiazol-2-yl}-3-(2-morpholin-4-ylethyl)urea or 1-{6-[(1S)-(2,6-dichloro-3-fluorophenyl)ethoxy]-5-fluoro-1,3-benzothiazol-2-yl}-3-(2-morpholin-4-ylethyl)urea], the negative logarithm of the IC50 (pIC50) against RON was over 6.30; against MET it was 5.00 to 6.30; in the assay on MKN45 cells (setting [1]), 5.00 to 6.30.
Take `CC(Oc1cc2sc(NC(=O)NCCO)nc2cc1F)c1c(Cl)ccc(F)c1Cl` (single isomer, unassigned) [Example 99, 1-{6-[(1R*)-1-(2,6-dichloro-3-fluorophenyl)ethoxy]-5-fluoro-1,3-benzothiazol-2-yl}-3-(2-hydroxyethyl)urea]: the pIC50 at RON, at MET and with MKN45 cells (setting [2]) was over 6.30 in each case.
Regarding `CCN1CCN(CCNC(=O)Nc2nc3cc(F)c(OC(C)c4c(Cl)ccc(F)c4Cl)cc3s2)CC1` (single isomer, unassigned) [Example 101, 1-{6-[(1R*)-1-(2,6-dichloro-3-fluorophenyl)ethoxy]-5-fluoro-1,3-benzothiazol-2-yl}-3-[2-(4-ethylpiperazin-1-yl)ethyl]urea], the pIC50 against RON, against MET and in the assay on MKN45 cells (setting [2]) was over 6.30 in each case.
`CCN1CCN(CCNC(=O)Nc2nc3cc(F)c(OC(C)c4c(Cl)ccc(F)c4Cl)cc3s2)CC1` (single isomer, unassigned) [Example 102, 1-{6-[(1S*)-1-(2,6-dichloro-3-fluorophenyl)ethoxy]-5-fluoro-1,3-benzothiazol-2-yl}-3-[2-(4-ethylpiperazin-1-yl)ethyl]urea]: the negative-log IC50 (pIC50) on RON, on MET and in the assay on MKN45 cells (setting [1]) was 5.00 to 6.30 throughout.
Regarding `CC(Oc1ccc2nc(NC(=O)NCCN3CCN(C)CC3)sc2c1)c1c(F)ccc(Cl)c1Cl` (single isomer, unassigned) [Example 109, 1-{6-[(1R*)-1-(2,3-dichloro-6-fluorophenyl)ethoxy]-1,3-benzothiazol-2-yl}-3-[2-(4-methylpiperazin-1-yl)ethyl]urea], the pIC50 against RON, against MET and with MKN45 cells (setting [2]) was over 6.30 in each case.
As to `CC(Oc1cc2sc(NC(=O)NCCN3CCOCC3)nc2cc1F)c1c(F)ccc(Cl)c1Cl` (single isomer, unassigned) [Example 112, 1-{6-[(1R*)-1-(2,3-dichloro-6-fluorophenyl)ethoxy]-5-fluoro-1,3-benzothiazol-2-yl}-3-[2-(morpholin-4-yl)ethyl]urea], the pIC50 against RON, against MET and with MKN45 cells (setting [2]) was over 6.30 in each case.
Regarding `CC(Oc1cc2sc(NC(=O)NCCN3CCOCC3)nc2cc1F)c1c(F)ccc(Cl)c1Cl` (single isomer, unassigned) [Example 113, 1-{6-[(1S*)-1-(2,3-dichloro-6-fluorophenyl)ethoxy]-5-fluoro-1,3-benzothiazol-2-yl}-3-[2-(morpholin-4-yl)ethyl]urea], the negative logarithm of the IC50 (pIC50) on RON was 5.00 to 6.30; against MET, over 6.30; with MKN45 cells (setting [1]) it was 5.00 to 6.30.
Turning to `CC(Oc1cc2sc(NC(=O)NCCN3CCN(C)CC3)nc2cc1F)c1c(F)ccc(Cl)c1Cl` (single isomer, unassigned) [Example 116, 1-{6-[(1R*)-1-(2,3-dichloro-6-fluorophenyl)ethoxy]-5-fluoro-1,3-benzothiazol-2-yl}-3-[2-(4-methylpiperazin-1-yl)ethyl]urea], the pIC50 against RON, at MET and with MKN45 cells (setting [2]) was over 6.30 each time.
Regarding `CC(Oc1cc2sc(NC(=O)NCCN3CCN(C)CC3)nc2cc1F)c1c(F)ccc(Cl)c1Cl` (single isomer, unassigned) [Example 117, 1-{6-[(1S*)-1-(2,3-dichloro-6-fluorophenyl)ethoxy]-5-fluoro-1,3-benzothiazol-2-yl}-3-[2-(4-methylpiperazin-1-yl)ethyl]urea], the pIC50 at RON, against MET and in the assay on MKN45 cells (setting [1]) was 5.00 to 6.30 in each case.
Consider `CC(Oc1cc2sc(NC(=O)NCCN3CCCC3)nc2cc1F)c1c(F)ccc(Cl)c1Cl` (single isomer, unassigned) [Example 119, 1-{6-[(1R*)-1-(2,3-dichloro-6-fluorophenyl)ethoxy]-5-fluoro-1,3-benzothiazol-2-yl}-3-[2-(pyrrolidin-1-yl)ethyl]urea], for which the pIC50 at RON was 5.00 to 6.30; at MET, over 6.30; with MKN45 cells (setting [2]), over 6.30.
On to `CC(Oc1ccc2nc(NC(=O)NCCN3CCCC3)sc2c1)c1c(F)ccc(Cl)c1Cl` (single isomer, unassigned) [Example 121, 1-{6-[(1R*)-(2,3-dichloro-6-fluorophenyl)ethoxy]-1,3-benzothiazol-2-yl}-3-[2-(pyrrolidin-1-yl)ethyl]urea], for which the pIC50 against RON, on MET and with MKN45 cells (setting [1]) was over 6.30 in each case.
With `CC(Oc1ccc2nc(NC(=O)NCCN3CCOCC3)[nH]c2c1)c1c(Cl)cccc1Cl` (stereo not drawn) [Example 2, 1-{6-[1-(2,6-dichlorophenyl)ethoxy]-1H-benzimidazol-2-yl}-3-(2-morpholin-4-ylethyl)urea], the pIC50 on RON, on MET and in the assay with MKN45 cells (setting [2]) was 5.00 to 6.30 throughout.
Take `CC(Oc1ccc2nc(NC(=O)NCCN3CCOCC3)[nH]c2c1)c1cc(F)ccc1Cl` (stereo not drawn) [Example 3, 1-{6-[1-(2-chloro-5-fluorophenyl)ethoxy]-1H-benzimidazol-2-yl}-3-(2-morpholin-4-ylethyl)urea]: the pIC50 against RON, against MET and with MKN45 cells (setting [2]) was 5.00 to 6.30 in each case.
Regarding `CC(Oc1ccc2nc(NC(=O)NCCN3CCOCC3)[nH]c2c1)c1c(Cl)ccc(F)c1Cl` (stereo not drawn) [Example 4, 4-{2-[({6-[1-(2,6-Dichloro-3-fluorophenyl)ethoxy]-1H-benzimidazol-2-yl}carbamoyl)amino]ethyl}morpholin-4-ium trifluoroacetate], the results for the pIC50 on RON, against MET and with MKN45 cells (setting [2]) were over 6.30, 5.00 to 6.30 and 5.00 to 6.30, respectively.
